How the values were obtained:
mHTT protein = mHTT protein assay (2B7-MW1, Mesoscale Discovery); assay type: cell-based, human; details: GM04724 (CAG 70/20) Huntington's disease patient lymphoblast cells, 48 hours, 2B7-MW1 MSD; read-out: HTT Potency - Protein EC50 mHTT (average)
Procedure: Compounds are tested on GM04724 (CAG 70/20) Huntington's disease patient lymphoblast cells at doses ranging from 10 μM to 0.6 nM. 4,500 cells/well are seeded in 384 well plates. One plate replica is carried out for parallel viability testing by CellTiter Glo (CTG). Compounds are incubated for 48 hours, mHTT protein levels are assessed by the 2B7-MW1 assay via Mesoscale Discovery (MSD) as previously reported (Macdonald et al., 2014). The antibody pair is comprised of previously characterized monoclonals (2B7 and MW1) interrogating two regions for HTT conformation and biological properties: the N17 domain and the polyQ domain (Baldo et al., 2012; Ko et., 2001). 2B7-MW1 is dependent on subject/animal specific levels of HTT at the time of treatment. 2B7-MW1 is dependent on polyQ expansion (e.g., the higher the expansion the higher the signal) and on mHTT size (e.g., a similar polyQ will give higher signal with smaller HTT size). The viability readout is carried out by CTG according to the manufacturer's instructions.

MDR1 = experiment: MDCK-MDR1 permeability assay (BBB penetration potential); assay type: in vitro ADME; details: dog; for efflux ratio at 120 min, 5 μM: MDCK-MDR1, pH 7.4, MDCK-MDR1: Efflux; for Papp A→B at 120 min, 5 μM: MDCK-MDR1, pH 7.4, MDCK-MDR1: Papp A-B; for Papp B→A at 120 min, 5 μM: MDCK-MDR1, pH 7.4, MDCK-MDR1: Papp B-A
Procedure: (§1) Each determination is performed in duplicate. […] Analytical conditions are outlined below.

[1] = tested on: MDR1-MDCK cell monolayers; experiment: as above; assay type: in vitro ADME; details: dog, MDCK-MDR1, 120 min, 5 μM, pH 7.4
Procedure: as §1

Structure (SMILES)	EC50 (mHTT protein) [nM]	efflux ratio at 120 min, 5 μM (MDR1)	Papp A→B at 120 min, 5 μM (MDR1) [×10⁻⁶ cm/s]	Papp B→A at 120 min, 5 μM (MDR1) [×10⁻⁶ cm/s]	MDCK-MDR1: % Recov A-B [1] [%]	MDCK-MDR1: % Recov B-A [1] [%]
Cc1cncc(-c2ccc(-c3ccc(O[C@H]4C[C@@H]5CCC[C@@H](N5)[C@H]4F)nn3)c(O)c2)n1 (single isomer, unassigned) [102-ENT2]	101 to 500	6	7.93	48.4	86	89
Oc1cc2ncccc2cc1-c1ccc(O[C@@H]2C[C@H]3CCC[C@H](N3)[C@@H]2F)nn1 (single isomer, unassigned) [103-ENT1]	501 to 10000	16	3.92	61.5	95	101
Oc1cc2ncccc2cc1-c1ccc(O[C@H]2C[C@@H]3CCC[C@@H](N3)[C@H]2F)nn1 (single isomer, unassigned) [103-ENT2]	501 to 10000	12	5.15	59.9	98	106
Oc1cc2nccnc2cc1-c1ccc(O[C@@H]2C[C@H]3CCC[C@H](N3)[C@@H]2F)nn1 (single isomer, unassigned) [104-ENT1]	501 to 10000	6	7.17	45.7	95	92
Oc1cc2nccnc2cc1-c1ccc(O[C@H]2C[C@@H]3CCC[C@@H](N3)[C@H]2F)nn1 (single isomer, unassigned) [104-ENT2]	501 to 10000	5	10.1	53.6	93	99
Oc1cc2cccnc2cc1-c1ccc(O[C@@H]2C[C@H]3CCC[C@H](N3)[C@@H]2F)nn1 (single isomer, unassigned) [105-ENT1]	101 to 500	6	8.12	47.1	92	84
Oc1cc2cccnc2cc1-c1ccc(O[C@H]2C[C@@H]3CCC[C@@H](N3)[C@H]2F)nn1 (single isomer, unassigned) [105-ENT2]	101 to 500	6	6.58	37.2	91	70
O=c1cc(-c2ccc(-c3ccc(O[C@@H]4C[C@H]5CCC[C@H](N5)[C@@H]4F)nn3)c(O)c2)ccn1CF (single isomer, unassigned) [106-ENT1]	101 to 500	48	1.07	51	102	90
O=c1cc(-c2ccc(-c3ccc(O[C@H]4C[C@@H]5CCC[C@@H](N5)[C@H]4F)nn3)c(O)c2)ccn1CF (single isomer, unassigned) [106-ENT2]	51 to 100	39	1.45	56.7	79	80
Cn1ccc(-c2ccc(-c3ccc(O[C@@H]4C[C@H]5CCC[C@H](N5)[C@@H]4F)nn3)c(O)c2)nc1=O (single isomer, unassigned) [107-ENT1]	101 to 500	90	0.11	10	90	90
Cn1ccc(-c2ccc(-c3ccc(O[C@H]4C[C@@H]5CCC[C@@H](N5)[C@H]4F)nn3)c(O)c2)nc1=O (single isomer, unassigned) [107-ENT2]	101 to 500	100	0.11	11.2	97	103
Cn1cc(-c2ccc(-c3ccc(O[C@@H]4C[C@H]5CCC[C@H](N5)[C@@H]4F)nn3)c(O)c2)c(F)n1 (single isomer, unassigned) [109-ENT1]	16 to 50	3	5.54	18.9	57	76
Cn1cc(-c2ccc(-c3ccc(O[C@H]4C[C@@H]5CCC[C@@H](N5)[C@H]4F)nn3)c(O)c2)c(F)n1 (single isomer, unassigned) [109-ENT2]	16 to 50	4	6.3	24.5	51	80
